Laboratory results as given in patent US8754242B2, “Herbicides” (Syngenta Crop Protection LLC, priority 2007, dated 2014).

Experiments:
Format in all cases: in vivo
[1] = tested on: Digitaria sanguinalis (DIGSA); assay: Test Example 1 post-emergence herbicidal activity; conditions: 360 h, rate 125 g/ha, evaluated 15 days later, read-out: Post-emergence activity DIGSA (100=total damage to plant; 0=no damage to plant)
Experimental: (§1) Monocotyledonous and dicotyledonous test plants were sown in standard soil in pots. After cultivation for one day (pre-emergence) or after 10 days cultivation (post-emergence) under controlled conditions in a glasshouse, the plants were sprayed with an aqueous spray solution derived from the formulation of the technical active ingredient in 0.6 ml acetone and 45 ml formulation solution containing 10.6% Emulsogen EL (Registry number 61791-12-6), 42.2% N-methylpyrrolidone, 42.2% dipropylene glycol monomethyl ether (Registry number 34590-94-8) and 0.2% X-77 (Registry number 11097-66-8). The test plants were then grown in a greenhouse under optimum conditions until, 15 days later for post-emergence and 20 days for pre-emergence, the test was evaluated (100=total damage to plant; 0=no damage to plant).
(§2) Alopecurus myosuroides (ALOMY), Avena fatua (AVEFA), Lolium perenne (LOLPE), Setaria faberi (SETFA), Digitaria sanguinalis (DIGSA), Echinochloa crus-galli (ECHCG)

Lolium perenne (LOLPE) [2] = assay: Test Example 1 post-emergence herbicidal activity; conditions: 360 h, rate 125 g/ha, evaluated 15 days later, read-out: Post-emergence activity LOLPE (100=total damage to plant; 0=no damage to plant)
Experimental: as §1, §2

[3] = tested on: Echinochloa crus-galli (ECHCG); assay: Test Example 1 post-emergence herbicidal activity; conditions: 360 h, rate 125 g/ha, evaluated 15 days later, read-out: Post-emergence activity ECHCG (100=total damage to plant; 0=no damage to plant)
Experimental: as §1, §2

[4] = tested on: Alopecurus myosuroides (ALOMY); assay: Test Example 1 post-emergence herbicidal activity; conditions: 360 h, rate 125 g/ha, evaluated 15 days later, read-out: Post-emergence activity ALOMY (100=total damage to plant; 0=no damage to plant)
Experimental: as §1, §2

Setaria faberi (SETFA) [5] = assay: Test Example 1 post-emergence herbicidal activity; conditions: 360 h, rate 125 g/ha, evaluated 15 days later, read-out: Post-emergence activity SETFA (100=total damage to plant; 0=no damage to plant)
Experimental: as §1, §2

Avena fatua (AVEFA) [6] = assay: Test Example 1 post-emergence herbicidal activity; conditions: 360 h, rate 125 g/ha, evaluated 15 days later, read-out: Post-emergence activity AVEFA (100=total damage to plant; 0=no damage to plant)
Experimental: as §1, §2

[7] = tested on: Digitaria sanguinalis (DIGSA); assay: Test Example 1 pre-emergence herbicidal activity; conditions: Digitaria sanguinalis, 480 h, rate 250 g/ha, evaluated 20 days later, read-out: Pre-emergence activity DIGSA (100=total damage to plant; 0=no damage to plant)
Experimental: as §1, §2

Lolium perenne (LOLPE) [8] = assay: Test Example 1 pre-emergence herbicidal activity; conditions: Lolium perenne, 480 h, rate 250 g/ha, evaluated 20 days later, read-out: Pre-emergence activity LOLPE (100=total damage to plant; 0=no damage to plant)
Experimental: as §1, §2

[9] = tested on: Echinochloa crus-galli (ECHCG); assay: Test Example 1 pre-emergence herbicidal activity; conditions: Echinochloa crus-galli, 480 h, rate 250 g/ha, evaluated 20 days later, read-out: Pre-emergence activity ECHCG (100=total damage to plant; 0=no damage to plant)
Experimental: as §1, §2

[10] = tested on: Alopecurus myosuroides (ALOMY); assay: Test Example 1 pre-emergence herbicidal activity; conditions: Alopecurus myosuroides, 480 h, rate 250 g/ha, evaluated 20 days later, read-out: Pre-emergence activity ALOMY (100=total damage to plant; 0=no damage to plant)
Experimental: as §1, §2

Setaria faberi (SETFA) [11] = assay: Test Example 1 pre-emergence herbicidal activity; conditions: Setaria faberi, 480 h, rate 250 g/ha, evaluated 20 days later, read-out: Pre-emergence activity SETFA (100=total damage to plant; 0=no damage to plant)
Experimental: as §1, §2

Avena fatua (AVEFA) [12] = assay: Test Example 1 pre-emergence herbicidal activity; conditions: Avena fatua, 480 h, rate 250 g/ha, evaluated 20 days later, read-out: Pre-emergence activity AVEFA (100=total damage to plant; 0=no damage to plant)
Experimental: as §1, §2

Row | SMILES | pest or weed control at 125 g/ha [1] [%] | pest or weed control at 125 g/ha (Lolium perenne (LOLPE) [2]) [%] | pest or weed control at 125 g/ha [3] [%] | pest or weed control at 125 g/ha [4] [%] | pest or weed control at 125 g/ha (Setaria faberi (SETFA) [5]) [%] | pest or weed control at 125 g/ha (Avena fatua (AVEFA) [6]) [%] | pest or weed control at 250 g/ha [7] [%] | pest or weed control at 250 g/ha (Lolium perenne (LOLPE) [8]) [%] | pest or weed control at 250 g/ha [9] [%] | pest or weed control at 250 g/ha [10] [%] | pest or weed control at 250 g/ha (Setaria faberi (SETFA) [11]) [%] | pest or weed control at 250 g/ha (Avena fatua (AVEFA) [12]) [%]
1 | Cc1cc(C)c(C2=C(O)[C@H]3[C@@H](C2=O)[C@@H]2CC[C@@]3(CO)O2)c(C)c1 [Example T49] | 70 | 70 | 80 | 80 | 50 | 80 | 10 | 100 | 80 | 80 | 20 | 70
2 | Cc1cc(C)c(C2=C(O)[C@H]3[C@@H](C2=O)[C@@H]2C=C[C@@]3(C(C)O)O2)c(C)c1 (mixture of isomers) [Example T39] | 70 | 0 | 70 | 10 | 60 | 20 | 30 | 30 | 30 | 10 | 40 | 20
3 | Cc1cc(C)c(C2=C(O)[C@H]3[C@@H](C2=O)[C@]2(C)CC[C@@]3(C)O2)c(C)c1 [Example T6] | 90 | 80 | 90 | 80 | 80 | 80 | 90 | 100 | 90 | 80 | 80 | 30
4 | Cc1cc(C)c(C2=C(O)[C@@H]3[C@@H]4O[C@@H](C[C@H]4c4cccc(C(F)(F)F)c4)[C@@H]3C2=O)c(C)c1 [Example T85] | 20 | 70 | 100 | 90 | 70 | 20 | 60 | 70 | 70 | 40 | 70 | 60
5 | CCc1cc(C)cc(C)c1C1=C(O)[C@H]2[C@@H](C1=O)[C@@H]1CC[C@H]2O1 [Example T2] | 100 | 100 | 100 | 100 | 80 | 90 | 100 | 100 | 100 | 100 | 90 | 100
6 | CCc1cc(C)cc(CC)c1C1=C(O)[C@@H]2[C@@H]3O[C@@H](C[C@H]3c3cccc(OC)c3)[C@@H]2C1=O [Example T153] | 30 | 50 | 70 | 50 | 20 | 80 | 60 | 80 | 70 | 70 | 70 | 70
